In ChEMBL document CHEMBL4145597, “BMS-986163, a Negative Allosteric Modulator of GluN2B with Potential Utility in Major Depressive Disorder” (ACS Med Chem Lett, 2018):

Columns and labels:
[1] = test system: Mus musculus; test: Ex vivo receptor occupancy at GluN2B receptor in CD-1 mouse forebrain membranes assessed as reduction in [3H]Ro 25-6981 receptor labeling at 3 mg/kg, iv incubated for 5 mins by topcount micro scintillation counting method; assay type: functional
[2] = biological target: Voltage-gated inwardly rectifying potassium channel KCNH2 (Homo sapiens, UniProt Q12809); test: Inhibition of human ERG expressed in HEK293 cells assessed as reduction in peak tail current after 2 to 5 mins by patch clamp based electrophysiology assay; assay type: cell-based
[3] = Plasma concentration in CD-1 mouse at 0.1 to 1 mg/kg, iv; assay type: ADME, organism-based; details: in vivo

Chain of Voltage-gated inwardly rectifying potassium channel KCNH2 (Q12809 whole entry): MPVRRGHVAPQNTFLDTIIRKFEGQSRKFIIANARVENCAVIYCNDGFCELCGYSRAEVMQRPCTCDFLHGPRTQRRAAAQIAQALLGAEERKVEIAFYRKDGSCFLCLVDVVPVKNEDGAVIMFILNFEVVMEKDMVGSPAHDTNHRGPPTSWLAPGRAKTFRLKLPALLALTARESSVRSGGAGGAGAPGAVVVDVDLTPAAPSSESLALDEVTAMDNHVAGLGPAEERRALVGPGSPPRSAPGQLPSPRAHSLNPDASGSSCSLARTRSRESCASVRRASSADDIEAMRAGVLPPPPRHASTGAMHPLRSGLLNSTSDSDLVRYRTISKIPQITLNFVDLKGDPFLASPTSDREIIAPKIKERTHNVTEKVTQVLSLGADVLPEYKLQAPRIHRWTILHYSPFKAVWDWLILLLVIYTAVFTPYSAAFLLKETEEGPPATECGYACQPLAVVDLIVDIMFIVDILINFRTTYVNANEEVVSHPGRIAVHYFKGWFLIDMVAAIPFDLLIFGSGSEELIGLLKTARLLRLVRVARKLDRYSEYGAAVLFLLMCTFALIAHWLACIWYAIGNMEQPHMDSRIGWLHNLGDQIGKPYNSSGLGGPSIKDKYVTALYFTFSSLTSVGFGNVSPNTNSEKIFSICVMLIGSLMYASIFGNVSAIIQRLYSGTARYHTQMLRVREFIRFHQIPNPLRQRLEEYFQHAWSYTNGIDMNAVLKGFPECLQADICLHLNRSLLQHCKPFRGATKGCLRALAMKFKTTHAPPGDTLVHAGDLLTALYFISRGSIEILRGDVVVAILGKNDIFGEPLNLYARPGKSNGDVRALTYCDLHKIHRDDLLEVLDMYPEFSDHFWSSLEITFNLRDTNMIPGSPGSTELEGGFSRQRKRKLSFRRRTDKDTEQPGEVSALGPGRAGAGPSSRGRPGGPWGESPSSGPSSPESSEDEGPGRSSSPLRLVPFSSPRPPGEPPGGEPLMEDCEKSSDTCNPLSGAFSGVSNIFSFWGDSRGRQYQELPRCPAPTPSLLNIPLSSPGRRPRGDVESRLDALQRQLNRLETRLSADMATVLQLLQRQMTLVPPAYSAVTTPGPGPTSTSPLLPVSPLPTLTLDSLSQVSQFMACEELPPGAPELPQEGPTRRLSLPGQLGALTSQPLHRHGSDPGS

SMILES | Occ [1] [%] | IC50 [2] [µM] | concentration [3] [nM]
Cc1ccc(CN2CC[C@@H](N3CCC(c4ccc(O)cc4)C(F)(F)C3)C2=O)cc1 (stereo partly specified) | 93 | > 30 | 2500
Cc1ccc(CN2CC[C@@H](N3CC[C@H](c4ccc(O)cc4)[C@H](F)C3)C2=O)cc1 | 95 | 7.8 | 590
